Test results as given in patent US4629627A, “Antiviral substance and the manufacturing method thereof” (priority 1978, dated 1986).

Experiments:
liver cancer in rats [1] = assay: Experiment 3: depression of liver cancer induced by 3'-Me-DAB in rats; type: in vivo, Wister male rats
Excerpt: The present inventor asked Prof. Nobuhiko Kanno, Biological Laboratory, Dept. of Pharmacology, Toyama Medical and Pharmacologival University, to test the activity of the present antiviral substance to depress the liver cancer in rats on pathogens of viruses.
1. Test animals: Wister male rats of 4 weeks of age were fed for 5 days as usual and tested.
2. Carcinogenic substance: 3'-methyl-4-dimethyl amino azobenzene (3'-Me-DAB) [drawing 1]
(1) Control group: standard food
(2) L group: standard food+L
(3) L+DAB group 0.06% 3'-Me-DAB containing food+L
(4) DAB group 0.06% 3'-Me-DAB containing food
Note: L: a frozen dry powder of the extract of the nutrient medium and tissue-medium of Lentinus edodes DAB: 3'-Me-DAB
4. Quantity and the method of giving the freeze-dried powder of the extract of the nutrient medium and tissue-medium of Lentinus edodes […]
The freeze-dried powder of the nutrient medium and tissue-medium of Lentinus edodes was dissolved in physiological salt water, and given intraperitoneally; the same dose of physiological salt water was similarly given to the control group.

liver cancer in rats [2] = details: rat's liver; cited from earlier work

Q: What does the source list for Cc1cccc(N=Nc2ccc(N(C)C)cc2)c1 [3'-Me-DAB, 3'-methyl-4-dimethyl amino azobenzene]?
A: liver finding at autopsy (liver cancer in rats [1]; dissection, after 14 and 18 weeks): fine yellowish white particles which seemed to be cancerous tissue were seen all over the liver; microscopic findings of the liver tissue (liver cancer in rats [1]; hematoxin-eosin): severe disarrangement of cells and the glandular structure specific to liver cancer (adeno carcinoma); depilation (liver cancer in rats [1]; microscopic observation, within about 5 and 15 weeks): depilation appeared on the abdomen in some a rats; carcinogenic property (liver cancer in rats [2]): specific and strong carcinogenic property
